Measured values from patent publication US4760136A, “Chartreusin derivatives and salts thereof” (Ishihara Sangyo Kaisha, Ltd., priority 1984, dated 1988).
Where two headings read alike, the source gives them in different places.

Tests used:
P-388 leukemia cells = assay: Antitumor activity: P-388 leukemia cells inoculated intraperitoneally, drug administered intravenously, BDF1 mice; type: in vivo; settings: for response vs control in vivo at 80 mg/kg: dose f: 80 mg/kg × 3, i.v. on days 1, 5 and 9
Procedure, shortened: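 Drug dosing was intravenous on the first, fifth and ninth days after intraperitoneal inoculation of P-388 leukemia cells (1×10^6 per mouse) into BDF1 mice. Vehicles were physiological saline alone, or saline with small amounts of sodium carboxymethyl cellulose or Tween-80.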

[1] = Acute toxicity, intravenous (once), ddY mice; type: in vivo; settings: mouse, in vivo, formulated per Preparation Example
Source text: In Table 7 are shown acute toxicity values (LD50, mg/kg) in ddY mice in the case of intravenously administering (once) each of the compounds of this invention in the form of preparations shown in the Preparation Examples shown in Table 7.

[2] = Mus musculus, P388, iv, dose b: 20 mg/kg × 3, i.v. on days 1, 5 and 9, BDF1 mice, P-388 i.p., read-out: T/C (%) of MST
[3] = Mus musculus, P388, iv, dose c: 40 mg/kg × 3, i.v. on days 1, 5 and 9, BDF1 mice, P-388 i.p., read-out: T/C (%) of MST
[4] = Mus musculus, P388, iv, BDF1 mice, P-388 i.p., read-out: T/C (%) of MST
[5] = Mus musculus, P388, iv, read-out: T/C (%) of MST
[6] = dose c: 40 mg/kg × 3, i.v. on days 1, 5 and 9, BDF1 mice, P-388 i.p.

| Compound | response vs control in vivo at 40 mg/kg (P-388 leukemia cells; [3]) [%] | LD50 ([1]; iv) [mg/kg] | response vs control in vivo at 80 mg/kg (P-388 leukemia cells; [4]) [%] | other results |
| --- | --- | --- | --- | --- |
| COC1C(O)C(C)OC(OC2C(Oc3cccc4c(OC(=O)CCNC=O)c5c(=O)oc6ccc(C)c7c(=O)oc(c34)c5c67)OC(C)C3OC(c4ccsc4)OC32)C1O (stereo not drawn) [compound 81] | 173 | ≥ 40 |  | response vs control in vivo at 20 mg/kg (P-388 leukemia cells; [2]): 139% |
| C=CC(=O)Oc1c2cccc(O[C@@H]3O[C@H](C)[C@@H]4OC(C)(C)O[C@@H]4[C@H]3O[C@H]3O[C@H](C)[C@H](O)[C@H](OC)[C@H]3O)c2c2oc(=O)c3c(C)ccc4oc(=O)c1c2c43 [compound 197] | 144 | ≥ 80 | 171 |  |
| CCCCCCCCCC(=O)Oc1c2cccc(OC3OC(C)C4OC(C)(C)OC4C3OC3OC(C)C(O)C(OC)C3O)c2c2oc(=O)c3c(C)ccc4oc(=O)c1c2c43 (stereo not drawn) [compound 220] |  | ≥ 60 |  | response vs control in vivo at 50 mg/kg (P-388 leukemia cells; Mus musculus, P388, iv, dose d: 50 mg/kg × 3, i.v. on days 1, 5 and 9, BDF1 mice, P-388 i.p., read-out: T/C (%) of MST): 157% |
| COC1C(O)C(C)OC(OC2C(Oc3cccc4c(OC(=O)CCNC(=O)C(F)(F)F)c5c(=O)oc6ccc(C)c7c(=O)oc(c34)c5c67)OC(C)C3OC(c4cccc(Br)c4)OC32)C1O (stereo not drawn) [Compound No. 31] | 171 | ≥ 80 | 238 |  |
| CO[C@H]1[C@@H](O)[C@@H](C)O[C@H](O[C@H]2[C@H](Oc3cccc4c(OC(=O)c5ccc(Cl)cc5Cl)c5c(=O)oc6ccc(C)c7c(=O)oc(c34)c5c67)O[C@H](C)[C@@H]3OC(C)(C)O[C@@H]32)[C@@H]1O [Compound No. 180] | 145 | ≥ 80 | 208 |  |
| COC1C(O)C(C)OC(OC2C(Oc3cccc4c(OC(=O)CCC(C)=O)c5c(=O)oc6ccc(C)c7c(=O)oc(c34)c5c67)OC(C)C3OC(c4ccccc4)OC32)C1O (stereo not drawn) [Compound No. 153] | 243 | ≥ 40 |  | response vs control in vivo at 20 mg/kg (P-388 leukemia cells; [2]): 203% |
| CCCC(=O)Oc1c2cccc(O[C@@H]3O[C@H](C)[C@@H]4OC(c5ccccc5OC)O[C@@H]4[C@H]3O[C@H]3O[C@H](C)[C@H](O)[C@H](OC)[C@H]3O)c2c2oc(=O)c3c(C)ccc4oc(=O)c1c2c43 (stereo partly drawn) [compound 216] |  |  |  | response vs control in vivo at 40 mg/kg (P-388 leukemia cells; [5]): 171%; LD50 [1]: ≥ 40 mg/kg |
| COC1C(O)C(C)OC(OC2C(Oc3cccc4c(OC(=O)C(Br)C(C)C)c5c(=O)oc6ccc(C)c7c(=O)oc(c34)c5c67)OC(C)C3OC(C)(C)OC32)C1O (stereo not drawn) [Compound No. 172] | 148 | ≥ 80 | 195 |  |
| COC1C(O)C(C)OC(OC2C(Oc3cccc4c(OC(=O)CNC(=O)OCc5ccccc5)c5c(=O)oc6ccc(C)c7c(=O)oc(c34)c5c67)OC(C)C3OC(c4ccccc4)OC32)C1O (stereo not drawn) [compound 71] |  | ≥ 40 |  | response vs control in vivo at 20 mg/kg (P-388 leukemia cells; [2]): 157% |
| CO[C@H]1[C@@H](O)[C@@H](C)O[C@H](O[C@H]2[C@H](Oc3cccc4c(OC(=O)c5ccc(C(F)(F)F)cc5)c5c(=O)oc6ccc(C)c7c(=O)oc(c34)c5c67)O[C@H](C)[C@@H]3OC(c4ccccc4)O[C@@H]32)[C@@H]1O (stereo partly drawn) [compound 195] | 165 | ≥ 40 |  |  |
| C/C=C(\C)C(=O)Oc1c2cccc(OC3OC(C)C4OC(c5ccccc5)OC4C3OC3OC(C)C(O)C(OC)C3O)c2c2oc(=O)c3c(C)ccc4oc(=O)c1c2c43 (stereo not drawn) [compound 231] |  |  |  | response vs control in vivo at 20 mg/kg (P-388 leukemia cells; [5]): 150%; LD50 [1]: ≥ 40 mg/kg |
| CO[C@H]1[C@@H](O)[C@@H](C)O[C@H](O[C@H]2[C@H](Oc3cccc4c(OC(=O)CCCCl)c5c(=O)oc6ccc(C)c7c(=O)oc(c34)c5c67)O[C@H](C)[C@@H]3OC(c4ccccc4)O[C@@H]32)[C@@H]1O (stereo partly drawn) [compound 214] | 130 | ≥ 80 | 198 |  |
| COC1C(O)C(C)OC(OC2C(Oc3cccc4c(OC(=O)CCNC(=O)OCc5ccccc5)c5c(=O)oc6ccc(C)c7c(=O)oc(c34)c5c67)OC(C)C3OC(C)(C)OC32)C1O (stereo not drawn) [compound 107] | 139 | ≥ 100 | 185 |  |
| COC1C(O)C(C)OC(OC2C(Oc3cccc4c(OC(=O)CCCCNC(=O)C(F)(F)F)c5c(=O)oc6ccc(C)c7c(=O)oc(c34)c5c67)OC(C)C3OC(c4ccccc4)OC32)C1O (stereo not drawn) [Compound No. 43] |  | ≥ 40 |  | response vs control in vivo at 20 mg/kg (P-388 leukemia cells; [2]): 226% |
| COC1C(O)C(C)OC(OC2C(Oc3cccc4c(OC(=O)CCNC(=O)OCc5ccccc5)c5c(=O)oc6ccc(C)c7c(=O)oc(c34)c5c67)OC(C)C3OC(c4cccc(F)c4)OC32)C1O (stereo not drawn) [compound 73] | 229 | ≥ 40 |  | response vs control in vivo at 20 mg/kg (P-388 leukemia cells; [2]): 176% |
| C=CCCC(=O)Oc1c2cccc(OC3OC(C)C4OC(C)(C)OC4C3OC3OC(C)C(O)C(OC)C3O)c2c2oc(=O)c3c(C)ccc4oc(=O)c1c2c43 (stereo not drawn) [Compound No. 175] | 145 | ≥ 80 | 208 |  |
| COC1C(O)C(C)OC(OC2C(Oc3cccc4c(OC(=O)C5CCCCC5NC(=O)C(F)(F)F)c5c(=O)oc6ccc(C)c7c(=O)oc(c34)c5c67)OC(C)C3OC(c4ccccc4)OC32)C1O (single isomer, unassigned) [Compound No. 118, 6-O-(N-Trifluoroacetyl-2-Amino-Cyclohexanecarbonyl)-3',4'-O-Benzylidene-Chartreusin] |  | ≥ 40 |  | T/C (%) of MST (P-388 leukemia cells; [6]): 135% |
| COC1C(O)C(C)OC(OC2C(Oc3cccc4c(OC(=O)C(Cc5c[nH]c6ccccc56)NC(=O)OCc5ccccc5)c5c(=O)oc6ccc(C)c7c(=O)oc(c34)c5c67)OC(C)C3OC(c4ccccc4)OC32)C1O (stereo not drawn) [compound 121] | 146 | ≥ 40 |  |  |
| CCOCCC(=O)Oc1c2cccc(O[C@@H]3O[C@H](C)[C@@H]4OC(c5cccc(Cl)c5)O[C@@H]4[C@H]3O[C@H]3O[C@H](C)[C@H](O)[C@H](OC)[C@H]3O)c2c2oc(=O)c3c(C)ccc4oc(=O)c1c2c43 (stereo partly drawn) [Compound No. 188] | 193 | ≥ 60 |  |  |
| CCOCCC(=O)Oc1c2cccc(OC3OC(C)C4OC(C)(C)OC4C3OC3OC(C)C(O)C(OC)C3O)c2c2oc(=O)c3c(C)ccc4oc(=O)c1c2c43 (stereo not drawn) [Compound No. 176] | 155 | ≥ 80 | 208 |  |
| COC1C(O)C(C)OC(OC2C(Oc3cccc4c(OC(=O)CCN)c5c(=O)oc6ccc(C)c7c(=O)oc(c34)c5c67)OC(C)C3OC(c4ccccc4)OC32)C1O (stereo not drawn) [Compound No. 18] |  | ≥ 40 |  | T/C (%) of MST (P-388 leukemia cells; dose b: 20 mg/kg × 3, i.v. on days 1, 5 and 9, BDF1 mice, P-388 i.p.): 196%; T/C (%) of MST (P-388 leukemia cells; [6]): 238% |
| COC1C(O)C(C)OC(OC2C(Oc3cccc4c(OC(=O)CCNC(=O)CNC(=O)OCc5ccccc5)c5c(=O)oc6ccc(C)c7c(=O)oc(c34)c5c67)OC(C)C3OC(c4ccccc4)OC32)C1O (stereo not drawn) [compound 75] | 197 | ≥ 40 |  | response vs control in vivo at 20 mg/kg (P-388 leukemia cells; [2]): 153% |
| CCCCCC(=O)Oc1c2cccc(OC3OC(C)C4OC(c5ccccc5)OC4C3OC3OC(C)C(O)C(OC)C3O)c2c2oc(=O)c3c(C)ccc4oc(=O)c1c2c43 (stereo not drawn) [Compound No. 196, 6-O-(n-Hexanoyl)-3',4'-O-Benzylidene-Chartreusin] | 208 | ≥ 80 |  |  |
| COC1C(O)C(C)OC(OC2C(Oc3cccc4c(OC(=O)CCCl)c5c(=O)oc6ccc(C)c7c(=O)oc(c34)c5c67)OC(C)C3OC(C)(C)OC32)C1O (stereo not drawn) [Compound No. 157] | 153 | ≥ 80 | 201 |  |
| CO[C@H]1[C@@H](O)[C@@H](C)O[C@H](O[C@H]2[C@H](Oc3cccc4c(OC(=O)c5ccc(Cl)cc5)c5c(=O)oc6ccc(C)c7c(=O)oc(c34)c5c67)O[C@H](C)[C@@H]3OC(C)(C)O[C@@H]32)[C@@H]1O [Compound No. 185] | 142 | ≥ 80 | 192 |  |
| CO[C@H]1[C@@H](O)[C@@H](C)O[C@H](O[C@H]2[C@H](Oc3cccc4c(OC(=O)COc5ccccc5)c5c(=O)oc6ccc(C)c7c(=O)oc(c34)c5c67)O[C@H](C)[C@@H]3OC(C)(C)O[C@@H]32)[C@@H]1O [compound 205] | 153 | ≥ 80 | 173 |  |
| COC1C(O)C(C)OC(OC2C(Oc3cccc4c(OC(=O)CCCCCCCCCCCNC(C)=O)c5c(=O)oc6ccc(C)c7c(=O)oc(c34)c5c67)OC(C)C3OC(C)(C)OC32)C1O (stereo not drawn) [compound 129] |  | ≥ 180 |  | response vs control in vivo at 160 mg/kg (P-388 leukemia cells; Mus musculus, P388, iv, dose i: 160 mg/kg × 3, i.v. on days 1, 5 and 9, BDF1 mice, P-388 i.p., read-out: T/C (%) of MST): 167% |
| CO[C@H]1[C@@H](O)[C@@H](C)O[C@H](O[C@H]2[C@H](Oc3cccc4c(OC(=O)c5cccc(N(C)C)c5)c5c(=O)oc6ccc(C)c7c(=O)oc(c34)c5c67)O[C@H](C)[C@@H]3OC(C)(C)O[C@@H]32)[C@@H]1O [compound 209] | 134 | ≥ 80 | 192 |  |
| COC1C(O)C(C)OC(OC2C(Oc3cccc4c(OC(=O)CCCl)c5c(=O)oc6ccc(C)c7c(=O)oc(c34)c5c67)OC(C)C3OC(c4ccccc4)OC32)C1O (stereo not drawn) [Compound No. 164] |  | ≥ 40 |  | response vs control in vivo at 20 mg/kg (P-388 leukemia cells; [2]): 198% |
